Test results taken from patent publication US20260027161A1, “BACTERIAL STRAINS FOR TREATING DISEASE” (MICROBA IP PTY LTD, priority 2021, published 2026).

What was measured:
[1] = system: ZO1 expression in T84 cells; assay: IFNγ-mediated loss of ZO1 expression in T84 cells (immunofluorescence); type: cell-based, human; conditions: pre-treatment with 1 mM metabolite for 18 hours, IFNγ 48 hours
[2] = system: mild to moderate flares of ulcerative colitis; conditions: first line therapy; cited from earlier work
[3] = system: IL-23-mediated activation of STAT3; assay: IL-23 mediated STAT3 activation, HEK-Blue IL-23 reporter cell line (SEAP); type: cell-based, human
Excerpt: The present inventors next sought to investigate whether bacterial products naturally produced by the gut bacterium I. colisanans MH27, can modulate IL-23 mediated activation of STAT3. The JAK-STAT immune axis is a recognised and validated drug target for IBD (Salas et al., 2020) and other diseases (McLornan et al., 2021) with JAK-STAT pathway signalling targeted by several approved IBD therapeutics including anti-IL-23 antibodies (e.g., Ustekinumab) and small molecule inhibitors (e.g., tofacitinib) (Hu et al., 2021). As STAT3 suppression can reduce damaging inflammation, I. colisanans MH27 and/or its bioactives could potentially be used as novel immunoregulatory therapies for IBD and other diseases. The present inventors therefore examined whether I. colisanans MH27 can suppress IL-23-mediated activation of STAT3 using the HEK-Blue™ IL-23 reporter cell line. […]
IL-23-mediated STAT3 activity was assessed using the HEK Blue IL-23 cell line (Invivogen). […] SEAP is secreted into the medium and the extent of SEAP expression can be quantified using QUANTI-Blue solution. […]
SEAP production was quantified using QUANTI-BIue™ solution and recorded as optical density (OD) at 630 nm using a PHERAstar FS plate reader (BMG Labtech). […]

[4] = system: DSS colitis; assay: Acute mouse model of DSS colitis, therapeutic model (I. colisanans MH27-2); type: in vivo, female C57BL/6 mice; conditions: 2.5% DSS, daily treatment Day 4 to Day 10
Excerpt: The therapeutic efficacy of I. colisanans MH27-2 in an acute mouse model of DSS colitis was examined, with prednisone acting as a positive control drug.
For the therapeutic model, groups of 10 or 20 female C57BL/6 mice were used. All animals, except those in the healthy group, were given 2.5% dextran sodium sulfate (DSS) in the drinking water for 6 days total (Day 0 to Day 5). DSS was then withdrawn and replaced with normal drinking water for a further 5 days (Day 6 to Day 10). For the treatments, mice were given once daily oral gavage of 200 μL of I. colisanans MH27-2 at a dose of 2×10^8 viable cells per day, or vehicle consisting of sterile glycerol and phosphate buffered salt solution. The positive control drug prednisone was similarly administered via oral gavage at a dose of 2 mg/kg per day. Treatments started on Day 4 and were given for 7 consecutive days until Day 10. Animals were sacrificed on Day 10 approximately 4 hours after the final treatment. Colon was harvested, rinsed, weighed, photographed, cut longitudinally. Colon tissue was fixed in 4% formalin and kept in 70% ethanol for histopathology using the Swiss-roll method.

[5] = system: DSS induced murine colitis; assay: Acute model of DSS induced murine colitis, prophylactic model; type: in vivo, C57BL/6 female mice
Excerpt: The present inventors hypothesised that the big-data approach could be used to identify novel candidate live biotherapeutics for inflammatory bowel disease. We therefore tested the therapeutic efficacy of I. colisanans MH27-1 in an acute model of DSS induced murine colitis (FIG. 4A) as this is a well-documented model of epithelial injury and repair. […] As expected, prednisone exacerbated the DSS induced weight loss (Yamamoto, 2013), however DSS induced weight loss was ameliorated by treatment with I. colisanans MH27-1 or F. prausnitzii A2-165 (FIG. 4B).
I. colisanans strains were grown to early stationary phase in PYG or YG/V. F. prausnitzii was grown in TY medium. The cell density of the individual cultures was calculated using a Helber Counting Chamber. To prepare the bacterial gavage solutions, individual cultures were centrifuged under a layer of sterile heavy mineral oil at 5,000 g for 10 minutes and the cell-free supernatant was then discarded. The cell pellets were washed in 1.5 ml of sterile anaerobic buffered diluent (38 ml/L each of salt solutions 2 & 3 (McSweeney, 2005), 1 ml/L of 0.1% (w/v) resazurin solution, 1 g/L L-cysteine) and then centrifuged again. […]
For the prophylactic model, six-week-old C57BL/6 female mice purchased from Animal Resources Centres (Western Australia, Australia) were randomised and then co-housed for 7 days prior to experimentation. […] Body weights and stool consistency were recorded daily. […]
Animals were examined with a small animal gastrointestinal endoscope (Karl Storz Endoskope, Tuttlingen, Germany) on days −1, 2 and 6 to assess the extent of colon mucosal inflammation (Marks, 2015; and Liu, 2019). […] To grade colitis severity, the extent of inflammation and epithelial injury in the tissue sections were graded semi-quantitatively using an established scoring system (Table 6). The samples were then randomised and subsequently scored in a blinded by a trained gastrointestinal pathologist.

[6] = system: IL-6 mediated activation of STAT3; assay: IL-6 mediated STAT3 activation, HEK-Blue IL-6 reporter cell line (SEAP); type: cell-based, human; conditions: control inhibitor, 10 μM
Excerpt: (§1) Increased levels of the pro-inflammatory cytokine IL-6 and signalling via its receptor IL-6R is associated with IBD pathogenesis. […] These effects are mediated by IL-6 receptor binding which causes JAK kinase activation and STAT3 dimerization in combination with activation of MAPK/ERK and other downstream kinases. Here, we examined whether I. colisanans MH27-1 and MH27-2 can suppress IL-6 classical and trans signalling mediated activation of STAT3 using the HEK-Blue™ IL-6 reporter cell line. The HEK-Blue™ IL-6 reporter cell line constitutively expresses the human IL-6 receptor and binding of IL-6 to the receptor triggers expression of a STAT3-responsive SEAP reporter. […] Additionally, I. colisanans MH27-2 suppressed IL-6 trans signalling mediated activation of STAT3 (FIG. 6G).
(§2) To assess IL-6 and IL-6/IL-6R-mediated STAT3 suppressive activity, three independent colonies were inoculated and grown until early stationary phase. […]
(§3) IL-6- and IL-6/IL-6R mediated STAT3 activity was assessed using the HEK Blue IL-6 cell line (Invivogen). […] After 24 hours, the STAT3 regulated SEAP reporter activity was assessed using Quanti Blue solution as recommended by the manufacturer (Invivogen). […] Cytotoxicity was assessed using the CellTiter-Glo® 2.0 Cell Viability Assay (Promega, Australia) as recommended by the manufacturer.

[7] = system: IL-6 trans signalling mediated activation of STAT3; assay: IL-6/IL-6R trans signalling mediated STAT3 activation, HEK-Blue IL-6 reporter cell line; type: cell-based, human; conditions: control inhibitor, 10 μM
Excerpt: as §1, §2, §3

[8] = DSS treated mice, colon histology

O=C(O)C=Cc1c[nH]c2ccccc12 [IAyA, indole-3-acrylic acid]
IFNγ-induced reduction in ZO1 expression [1]: significantly ameliorated

O=C(O)CCc1c[nH]c2ccccc12 [IPA, indole-3-proprionic acid]
IFNγ-induced reduction in ZO1 expression [1]: significantly ameliorated

Nc1ccc(O)c(C(=O)O)c1 [Mesalmine]
response rates [2]: 40%-70%

O=C1NC(Cc2ccccc2)C(=O)N2CCCC12 (centres unmarked) [cyclo(-Phe-Pro)]
IL-23 mediated activation of STAT3 ([3]; pure metabolite, relative to the vehicle control): suppressed

C[C@]12C=CC(=O)C=C1CC[C@@H]1[C@@H]2C(=O)C[C@@]2(C)[C@H]1CC[C@]2(O)C(=O)CO [prednisone]
histological evidence of colitis [4]: ameliorated | DSS induced weight loss (body weight) ([5]; 3.5% DSS, daily treatment, compared to DSS+vehicle): exacerbated | disease pathology (histopathological score) [5, 8]: significant improvement in disease pathology | epithelial injury [5, 8]: ameliorated

C[C@@H]1CCN(C(=O)CC#N)C[C@@H]1N(C)c1ncnc2[nH]ccc12 [tofacitinib]
IL-6 mediated activation of STAT3 [6]: fully prevented | IL-6/IL-6R mediated activation of STAT3 [7]: fully prevented | IL-23 mediated activation of STAT3 ([3]; control inhibitor, 5 μM): fully prevented
